From ChEMBL document CHEMBL1157561, “Identification of potent pyrazolo[4,3-h]quinazoline-3-carboxamides as multi-cyclin-dependent kinase inhibitors” (J Med Chem, 2010)
≈ marks a conversion by molar mass, not a printed value.

Columns and labels:
[1] = biological target: Cyclin-dependent kinase 2/cyclin A (Homo sapiens, UniProt P24941); test: Inhibition of CDK2/Cyclin A; format: protein-complex assay
A2780 = test: Antiproliferative activity against human A2780 cells after 72 hrs by cell-titer-glo assay; format: functional, cell-based; details: A2780, 72 h
Aurora kinase A = biological target: T1, Aurora kinase A (Homo sapiens, UniProt O14965); test: Inhibition of Aurora A
T1 sequence (O14965 whole entry): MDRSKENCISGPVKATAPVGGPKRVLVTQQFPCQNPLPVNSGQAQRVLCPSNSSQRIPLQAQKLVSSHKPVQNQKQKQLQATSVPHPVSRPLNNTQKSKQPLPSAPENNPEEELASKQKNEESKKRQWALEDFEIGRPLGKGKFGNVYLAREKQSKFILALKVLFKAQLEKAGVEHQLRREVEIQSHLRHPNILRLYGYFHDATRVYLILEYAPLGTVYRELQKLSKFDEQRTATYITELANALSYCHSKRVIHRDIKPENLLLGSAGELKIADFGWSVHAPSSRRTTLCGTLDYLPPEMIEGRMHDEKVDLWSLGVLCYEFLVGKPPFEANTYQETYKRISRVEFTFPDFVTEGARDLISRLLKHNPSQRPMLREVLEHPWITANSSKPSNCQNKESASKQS

[2] = Solubility at pH 7.0; format: physicochemical; details: buffer

With `Cn1nc(C(N)=O)c2c1-c1nc(NCc3ccncc3)ncc1CC2` the IC50 [1] was 21 nM, the IC50 (A2780) was 1240 nM and the IC50 (Aurora kinase A) was 1920 nM. The solubility [2] was 222 µM (≈ 74.5 µg/mL).
With `CNC(=O)c1nn(C)c2c1CCc1cnc(NC3CCCCC3)nc1-2` the IC50 (A2780) was 8600 nM, the IC50 (Aurora kinase A) was over 10000 nM and the solubility [2] was 50 µM (≈ 17 µg/mL).
`Cn1nc(C(N)=O)c2c1-c1nc(NCc3cccnc3)ncc1CC2` showed an IC50 [1] of 21 nM, an IC50 (A2780) of 1390 nM and an IC50 (Aurora kinase A) of 2310 nM. It also gave a solubility [2] of 138 µM (≈ 46.3 µg/mL).
For `Cn1nc(C(N)=O)c2c1-c1nc(NCCO)ncc1CC2`, the IC50 [1] was 19 nM, the IC50 (A2780) was 2550 nM and the IC50 (Aurora kinase A) was 4600 nM. It also gave a solubility [2] of over 225 µM.
`NC(=O)c1nn(-c2ccccn2)c2c1CCc1cnc(NC3CCCC3)nc1-2` gave an IC50 [1] of 52 nM, an IC50 (A2780) of 2160 nM and an IC50 (Aurora kinase A) of over 10000 nM. It also gave a solubility [2] of 4.9 µM (≈ 1.84 µg/mL).
`CN1CCN(C(=O)N2CCC(Nc3ncc4c(n3)-c3c(c(C(N)=O)nn3C)CC4)CC2)CC1` gave an IC50 [1] of 12 nM, an IC50 (A2780) of 1300 nM and an IC50 (Aurora kinase A) of 4710 nM. The solubility [2] was over 225 µM.
With `CNC(=O)c1nn(C)c2c1CCc1cnc(NC3CCCC3)nc1-2` the IC50 [1] was 97 nM, the IC50 (A2780) was over 10000 nM and the IC50 (Aurora kinase A) was over 10000 nM. It also gave a solubility [2] of 36 µM (≈ 11.8 µg/mL).
For `CC(=O)Nc1ccc(CNc2ncc3c(n2)-c2c(c(C(N)=O)nn2C)CC3)cc1`, the IC50 [1] was 13 nM, the IC50 (A2780) was 903 nM and the IC50 (Aurora kinase A) was 672 nM. The solubility [2] was over 10 µM.
`Cn1nc(C(N)=O)c2c1-c1nc(NCc3ccc(S(C)(=O)=O)cc3)ncc1CC2` showed an IC50 [1] of 38 nM, an IC50 (A2780) of 2360 nM and an IC50 (Aurora kinase A) of 890 nM. The solubility [2] was 138 µM (≈ 56.9 µg/mL).
`CN1CCN(c2ccc(CNc3ncc4c(n3)-c3c(c(C(N)=O)nn3C)CC4)cc2)CC1` gave an IC50 [1] of 17 nM, an IC50 (A2780) of 1580 nM and an IC50 (Aurora kinase A) of 1290 nM. The solubility [2] was 28 µM (≈ 12.1 µg/mL).
Work on `NC(=O)c1nn(-c2ccccc2)c2c1CCc1cnc(NC3CCCC3)nc1-2` yielded an IC50 [1] of 20 nM, an IC50 (A2780) of 480 nM and an IC50 (Aurora kinase A) of 4050 nM. For the same molecule, the solubility [2] was under 1 µM.
Molecule `CCN1CCC(Nc2ncc3c(n2)-c2c(c(C(N)=O)nn2C)CC3)CC1` has an IC50 [1] of 149 nM, an IC50 (A2780) of 2460 nM and an IC50 (Aurora kinase A) of over 10000 nM. The solubility [2] was 221 µM (≈ 78.6 µg/mL).
`CNC(=O)c1nn(C)c2c1CCc1cnc(NC3CCN(C(C)=O)CC3)nc1-2` showed an IC50 [1] of 32 nM, an IC50 (A2780) of over 10000 nM and an IC50 (Aurora kinase A) of over 10000 nM. For the same molecule, the solubility [2] was over 225 µM.
`Cn1nc(C(N)=O)c2c1-c1nc(NCc3ccccc3)ncc1CC2` gave an IC50 [1] of 51 nM, an IC50 (A2780) of 933 nM and an IC50 (Aurora kinase A) of 1000 nM. The solubility [2] was over 10 µM.
Molecule `COc1cccc(CNc2ncc3c(n2)-c2c(c(C(N)=O)nn2C)CC3)c1` has an IC50 [1] of 66 nM, an IC50 (A2780) of 1980 nM and an IC50 (Aurora kinase A) of 1140 nM. It also gave a solubility [2] of 4.4 µM (≈ 1.6 µg/mL).
In the case of `COc1ccc(CNc2ncc3c(n2)-c2c(c(C(N)=O)nn2C)CC3)cc1`, the IC50 [1] is reported as 58 nM, the IC50 (A2780) is reported as 4140 nM and the IC50 (Aurora kinase A) is reported as 1450 nM. It also gave a solubility [2] of under 1 µM.
With `CN(O)C(=O)c1nn(C)c2c1CCc1cnc(NC3CCCC3)nc1-2` the IC50 [1] was 175 nM, the IC50 (A2780) was 5530 nM and the IC50 (Aurora kinase A) was 3060 nM. For the same molecule, the solubility [2] was 29 µM (≈ 9.93 µg/mL).
For `CNC(=O)c1nn(C2CCN(C)CC2)c2c1CCc1cnc(NC3CCCC3)nc1-2`, the IC50 [1] was 59 nM, the IC50 (A2780) was 1590 nM and the IC50 (Aurora kinase A) was over 10000 nM. For the same molecule, the solubility [2] was 182 µM (≈ 74.5 µg/mL).
With `NC(=O)c1nn(CCO)c2c1CCc1cnc(NC3CCCC3)nc1-2` the IC50 [1] was 8 nM, the IC50 (A2780) was 330 nM and the IC50 (Aurora kinase A) was 6040 nM. For the same molecule, the solubility [2] was 27 µM (≈ 9.24 µg/mL).
Work on `CC(=O)N1CCC(n2nc(C(N)=O)c3c2-c2nc(NC4CCCC4)ncc2CC3)CC1` yielded an IC50 [1] of 7 nM, an IC50 (A2780) of 70 nM and an IC50 (Aurora kinase A) of 1970 nM. For the same molecule, the solubility [2] was 179 µM (≈ 75.8 µg/mL).
Work on `CNC(=O)c1nn(C)c2c1CCc1cnc(NC3CCN(C(=O)c4ccccc4)CC3)nc1-2` yielded an IC50 [1] of 25 nM, an IC50 (A2780) of 822 nM and an IC50 (Aurora kinase A) of over 10000 nM. For the same molecule, the solubility [2] was 168 µM (≈ 74.8 µg/mL).
Work on `NC(=O)c1nn(Cc2ccccc2)c2c1CCc1cnc(NC3CCCC3)nc1-2` yielded an IC50 [1] of 23 nM, an IC50 (A2780) of 840 nM and an IC50 (Aurora kinase A) of over 10000 nM. It also gave a solubility [2] of under 1 µM.
With `Cn1nc(C(N)=O)c2c1-c1nc(NCc3ccccn3)ncc1CC2` the IC50 [1] was 87 nM, the IC50 (A2780) was 5120 nM and the IC50 (Aurora kinase A) was 4640 nM. For the same molecule, the solubility [2] was 123 µM (≈ 41.3 µg/mL).
Work on `Cn1nc(C(N)=O)c2c1-c1nc(NCc3ccc(Br)cc3)ncc1CC2` yielded an IC50 [1] of 81 nM, an IC50 (A2780) of 567 nM and an IC50 (Aurora kinase A) of 1690 nM. For the same molecule, the solubility [2] was under 1 µM.
